In patent publication US10077277B2, “Bicyclic heteroarylaminoalkyl phenyl derivatives as PI3K inhibitors” (Incyte Corporation, priority 2014, dated 2018) one finds IC50 and JAK2/JAK1 data, which are given here for 26 molecules.

Structures can show the parent of a compound that is named as a salt. Some results are limits rather than exact numbers.

Common to all, as to type: biochemical
Assay [1] addresses human JAK1 (Homo sapiens, UniProt P23458). As to the kind of experiment: In vitro JAK kinase assay (Example J), JAK1. Conditions: Assay J at 1 mM ATP.
The target in assay [2] is human JAK2 (Homo sapiens (Human), UniProt O60674). The assay can be described thus: In vitro JAK kinase assay (Example J), JAK2. The following applies: ratio of IC50s, Assay J at 1 mM ATP.
human JAK2, sequence (O60674 828-1132): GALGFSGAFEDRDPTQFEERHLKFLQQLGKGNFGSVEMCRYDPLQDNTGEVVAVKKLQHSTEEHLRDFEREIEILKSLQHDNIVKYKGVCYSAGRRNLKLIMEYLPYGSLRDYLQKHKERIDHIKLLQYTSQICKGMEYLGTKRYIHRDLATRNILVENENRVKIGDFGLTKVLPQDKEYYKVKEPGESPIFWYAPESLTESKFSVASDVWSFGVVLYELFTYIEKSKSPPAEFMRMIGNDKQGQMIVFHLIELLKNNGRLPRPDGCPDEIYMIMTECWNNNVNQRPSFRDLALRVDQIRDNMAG
For assay [3], the target named is PI3Kδ (p110δ/p85α) (Homo sapiens (Human), UniProt O00329). As to the kind of experiment: PI3Kδ scintillation proximity assay (Example A3). The following applies: Assay A3, 20 μM ATP. An excerpt: Example A3: PI3Kδ Scintillation Proximity Assay
PI3Kδ (p110δ/p85α), sequence (O00329 whole entry): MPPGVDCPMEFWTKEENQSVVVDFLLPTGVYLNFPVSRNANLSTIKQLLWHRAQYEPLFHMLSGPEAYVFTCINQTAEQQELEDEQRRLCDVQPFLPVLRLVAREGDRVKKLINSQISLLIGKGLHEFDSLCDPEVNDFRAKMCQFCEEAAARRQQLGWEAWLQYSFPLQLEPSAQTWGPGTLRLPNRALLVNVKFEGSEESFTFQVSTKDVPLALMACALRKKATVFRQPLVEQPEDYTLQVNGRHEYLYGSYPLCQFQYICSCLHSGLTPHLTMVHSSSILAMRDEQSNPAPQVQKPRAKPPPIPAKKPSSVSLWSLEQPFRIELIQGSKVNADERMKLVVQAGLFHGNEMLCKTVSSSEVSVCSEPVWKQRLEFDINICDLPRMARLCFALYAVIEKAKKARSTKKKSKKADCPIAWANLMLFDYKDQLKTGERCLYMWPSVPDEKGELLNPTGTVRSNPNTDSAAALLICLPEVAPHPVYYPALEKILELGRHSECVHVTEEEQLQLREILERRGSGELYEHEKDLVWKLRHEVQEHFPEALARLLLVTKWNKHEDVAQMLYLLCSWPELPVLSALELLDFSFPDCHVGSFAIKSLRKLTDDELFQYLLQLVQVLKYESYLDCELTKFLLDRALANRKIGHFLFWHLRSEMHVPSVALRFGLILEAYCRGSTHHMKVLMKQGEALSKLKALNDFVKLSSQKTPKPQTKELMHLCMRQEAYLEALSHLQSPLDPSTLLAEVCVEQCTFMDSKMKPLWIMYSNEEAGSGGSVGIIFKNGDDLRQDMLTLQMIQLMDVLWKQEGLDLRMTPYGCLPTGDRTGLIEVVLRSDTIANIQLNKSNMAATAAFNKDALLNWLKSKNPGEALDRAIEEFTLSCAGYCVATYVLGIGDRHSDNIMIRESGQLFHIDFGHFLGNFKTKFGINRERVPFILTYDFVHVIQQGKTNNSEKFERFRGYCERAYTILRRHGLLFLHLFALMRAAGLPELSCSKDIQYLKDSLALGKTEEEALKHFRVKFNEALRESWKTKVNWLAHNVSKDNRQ
PI3Kδ (p110δ/p85α), sequence (P27986 whole entry partner): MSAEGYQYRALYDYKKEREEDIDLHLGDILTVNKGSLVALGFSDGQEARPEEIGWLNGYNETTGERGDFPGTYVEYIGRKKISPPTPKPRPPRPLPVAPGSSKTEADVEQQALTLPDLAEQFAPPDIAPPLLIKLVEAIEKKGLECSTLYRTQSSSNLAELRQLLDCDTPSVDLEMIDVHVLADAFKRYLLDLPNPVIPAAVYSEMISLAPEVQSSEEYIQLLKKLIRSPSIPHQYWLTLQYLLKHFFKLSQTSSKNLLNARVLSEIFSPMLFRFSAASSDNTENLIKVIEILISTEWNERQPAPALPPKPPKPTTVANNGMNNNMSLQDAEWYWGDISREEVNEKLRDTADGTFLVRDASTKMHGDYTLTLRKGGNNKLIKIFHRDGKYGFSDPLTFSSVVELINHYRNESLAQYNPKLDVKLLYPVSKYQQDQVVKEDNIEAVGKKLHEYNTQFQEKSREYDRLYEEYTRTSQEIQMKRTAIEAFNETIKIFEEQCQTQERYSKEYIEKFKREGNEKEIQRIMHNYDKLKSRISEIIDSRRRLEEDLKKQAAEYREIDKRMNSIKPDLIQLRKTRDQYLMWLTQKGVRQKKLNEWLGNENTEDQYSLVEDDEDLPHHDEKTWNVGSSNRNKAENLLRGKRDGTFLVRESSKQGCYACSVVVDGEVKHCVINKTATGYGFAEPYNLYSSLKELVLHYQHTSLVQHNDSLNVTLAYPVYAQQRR
[γ-^33P]ATP (10 mCi/mL) was purchased from PerkinElmer (Waltham, Mass.). Lipid kinase substrate, D-myo-Phosphatidylinositol 4,5-bisphosphate (PtdIns(4,5)P2)D (+)-sn-1,2-di-O-octanoylglyceryl, 3-O-phospho linked (PIP2), CAS 204858-53-7, was purchased from Echelon Biosciences (Salt Lake City, Utah). PI3Kδ (p110δ/p85α) was purchased from Millipore (Bedford, Mass.). ATP, MgCl2, DTT, EDTA, MOPS and CHAPS were purchased from SigmaAldrich (St. Louis, Mo.). Wheat Germ Agglutinin (WGA) YSi SPA Scintillation Beads was purchased from GE healthcare life sciences (Piscataway, N.J.).
The kinase reaction was conducted in polystyrene 384-well matrix white plate from Thermo Fisher Scientific in a final volume of 25 μL. Inhibitors were first diluted serially in DMSO and added to the plate wells before the addition of other reaction components. The final concentration of DMSO in the assay was 0.5%. The PI3K assays were carried out at room temperature in 20 mM MOPS, pH 6.7, 10 mM MgCl2, 5 mM DTT and CHAPS 0.03%. Reactions were initiated by the addition of ATP, the final reaction mixture consisted of 20 μM PIP2, 20 μM ATP, 0.2 μCi [γ-^33P] ATP, 4 nM PI3Kδ. Reactions were incubated for 210 min and terminated by the addition of 40 μL SPA beads suspended in quench buffer: 150 mM potassium phosphate pH 8.0, 20% glycerol. 25 mM EDTA, 400 μM ATP. The final concentration of SPA beads was 1.0 mg/mL. After the plate sealing, plates were shaken overnight at room temperature and centrifuged at 1800 rpm for 10 minutes, the radioactivity of the product was determined by scintillation counting on Topcount (PerkinElmer). IC50 determination was performed by fitting the curve of percent control activity versus the log of the inhibitor concentration using the GraphPad Prism 3.0 software. IC50 data for the Examples is presented in Table 2 as determined by Assay A3.
On the technique in general: In a scintillation proximity assay essentially only radioactivity close to the scintillant gives light.

As to `C[C@H](O)CNCc1cc(OC2CCN([C@H]3C[C@](CC#N)(n4cc(-c5ncnc6[nH]ccc56)cn4)C3)CC2)nc(C(F)(F)F)c1` [Example 25], the IC50 in assay [1] was under 0.01 µM. For the same molecule, the JAK2/JAK1 in assay [2] is over 10.
For `N#CCC1(n2cc(-c3ncnc4[nH]ccc34)cn2)CN(C2CCN(C(=O)c3ccnc(C(F)(F)F)c3F)CC2)C1` [Example 7, {1-{1-[3-Fluoro-2-(trifluoromethyl)isonicotinoyl]piperidin-4-yl}-3-[4-(7H-pyrrolo[2,3-d]pyrimidin-4-yl)-1H-pyrazol-1-yl]azetidin-3-yl}acetonitrile] the same measures were under 0.01 µM and over 10.
Consider `CCOc1c(C(C)Nc2ncnc3cccnc23)cc(Cl)c(F)c1C1CNC(=O)C1` (stereo not shown) [Example 2, 4-{3-Chloro-6-ethoxy-2-fluoro-5-[1-(pyrido[3,2-d]pyrimidin-4-ylamino)ethyl]phenyl}pyrrolidin-2-one], for which the IC50 in assay [3] is at most 0.1 µM.
In turn, `N#CCC1(n2cc(-c3ncnc4[nH]ccc34)cn2)CN(C2CCN(C(=O)Nc3ccc(F)cc3C(F)(F)F)CC2)C1` [Example 8, 4-{3-(Cyanomethyl)-3-[4-(7H-pyrrolo[2,3-d]pyrimidin-4-yl)-1H-pyrazol-1-yl]azetidin-1-yl}-N-[4-fluoro-2-(trifluoromethyl)phenyl]piperidine-1-carboxamide] came in with a half-inhibitory concentration (IC50) in assay [1] of under 0.01 µM. The JAK2/JAK1 in assay [2] was over 10.
For `C[C@@H](CO)NCc1cc(OC2CCN([C@H]3C[C@](CC#N)(n4cc(-c5ncnc6[nH]ccc56)cn4)C3)CC2)nc(C(F)(F)F)c1` [Example 23] the same measures were under 0.01 µM and over 10.
Molecule `CCOc1c(C(C)Nc2ncnc3scnc23)cc(Cl)c(F)c1C1CNC(=O)C1` (single isomer, unassigned) [Example 1B, 4-{3-chloro-6-ethoxy-2-fluoro-5-[1-([1,3]thiazolo[5,4-d]pyrimidin-7-ylamino)ethyl]phenyl}pyrrolidin-2-one] had an IC50 in assay [3] of 0.1 to 0.4 µM.
On the same count and under the same terms, the value for `CCOc1c(C(C)Nc2ncnc3scnc23)cc(Cl)c(F)c1C1CNC(=O)C1` (single isomer, unassigned) [Example 1D, 4-{3-chloro-6-ethoxy-2-fluoro-5-[1-([1,3]thiazolo[5,4-d]pyrimidin-7-ylamino)ethyl]phenyl}pyrrolidin-2-one] was 0.1 to 0.4 µM.
Consider `N#CCC1(n2cc(-c3ncnc4[nH]ccc34)cn2)CN([C@H]2CC[C@@H](Oc3cc(CCO)nc(C(F)(F)F)n3)CC2)C1` [Example 18, {1-(cis-4-{[6-(2-hydroxyethyl)-2-(trifluoromethyl)pyrimidin-4-yl]oxy}cyclohexyl)-3-[4-(7H-pyrrolo[2,3-d]pyrimidin-4-yl)-1H-pyrazol-1-yl]azetidin-3-yl}acetonitrile], for which the IC50 in assay [1] was under 0.01 µM. The JAK2/JAK1 in assay [2] is over 10.
For `N#CC[C@]1(n2cc(-c3ncnc4[nH]ccc34)cn2)C[C@H](N2CCC(Oc3cc(CN4CCC[C@@H]4CO)cc(C(F)(F)F)n3)CC2)C1` [Example 13] the same measures were under 0.01 µM and over 10.
As for `N#CCC(CN1CCN(C(=O)c2ccc(C#N)cc2F)CC1)n1cc(-c2ncnc3[nH]ccc23)cn1` (stereo not shown) [Example 6], the JAK2/JAK1 in assay [2] is reported as over 10.
In assay [1], `N#CCC1(n2cc(-c3ncnc4[nH]ccc34)cn2)CN([C@H]2CC[C@@H](Oc3cc(CN4CC[C@@H](O)C4)cc(C(F)(F)F)n3)CC2)C1` [Example 21] yielded a half-inhibitory concentration (IC50) of under 0.01 µM. The JAK2/JAK1 in assay [2] is recorded as over 10.
`N#CCC(CN1CCN(C(=O)c2ccc(C#N)cc2F)CC1)n1cc(-c2ncnc3[nH]ccc23)cn1` (stereo not shown) [Example 5]: in assay [1], the IC50 was under 0.01 µM. The JAK2/JAK1 in assay [2] is over 10.
`C[C@H](NC(=O)c1cc(F)c(N2CC(CC#N)(n3cc(-c4ncnc5[nH]ccc45)cn3)C2)cc1F)C(F)(F)F` [Example 16] displayed an IC50 in assay [1] of under 0.01 µM. In assay [2], the JAK2/JAK1 is on record as over 10.
In the same order, the values of `CCNCc1cc(O[C@H]2CC[C@@H](N3CC(CC#N)(n4cc(-c5ncnc6[nH]ccc56)cn4)C3)CC2)nc(C(F)(F)F)c1` [Example 19, {1-(cis-4-{[4-[(ethylamino)methyl]-6-(trifluoromethyl)pyridin-2-yl]oxy}cyclohexyl)-3-[4-(7H-pyrrolo[2,3-d]pyrimidin-4-yl)-1H-pyrazol-1-yl]azetidin-3-yl}acetonitrile] are under 0.01 µM and over 10.
In the same order, the values of `N#CC[C@]1(n2cc(-c3ncnc4[nH]ccc34)cn2)C[C@H](N2CCN(C(=O)c3ccnc(C(F)(F)F)n3)CC2)C1` [Example 10] are under 0.01 µM and over 10.
In the same order, the values of `C[C@@H](O)CNCc1cc(OC2CCN([C@H]3C[C@](CC#N)(n4cc(-c5ncnc6[nH]ccc56)cn4)C3)CC2)nc(C(F)(F)F)c1` [Example 24] are under 0.01 µM and over 10.
`CCOc1c([C@@H](C)Nc2ncnc3cccnc23)cc(Cl)c(F)c1[C@@H]1CNC(=O)C1` (single isomer, unassigned) [Example 2B, 4-{3-chloro-6-ethoxy-2-fluoro-5-[1-(pyrido[3,2-d]pyrimidin-4-ylamino)ethyl]phenyl}pyrrolidin-2-one] registered an IC50 in assay [3] of 0.1 to 0.4 µM.
In assay [1], `N#CCC1(n2cc(-c3ncnc4[nH]ccc34)cn2)CN(C2CCN(C(=O)c3ccnc(C(F)(F)F)n3)CC2)C1` [Example 9, [3-[4-(7H-pyrrolo[2,3-d]pyrimidin-4-yl)-1H-pyrazol-1-yl]-1-(1-{[2-(trifluoromethyl)pyrimidin-4-yl]carbonyl}piperidin-4-yl)azetidin-3-yl]acetonitrile] displayed an IC50 of under 0.01 µM. For the same molecule, in assay [2], the JAK2/JAK1 was over 10.
In the same order, the values of `N#CC[C@]1(n2cc(-c3ncnc4[nH]ccc34)cn2)C[C@H](N2CCC(Oc3cc(CN4CCC[C@H]4CO)cc(C(F)(F)F)n3)CC2)C1` [Example 12] are under 0.01 µM and over 10.
Take `N#CCC1(n2cc(-c3ncnc4[nH]ccc34)cn2)CN([C@H]2CC[C@@H](Oc3cc(CN4CC[C@H](O)C4)cc(C(F)(F)F)n3)CC2)C1` [Example 22, {1-(cis-4-{[4-{[(3S)-3-hydroxypyrrolidin-1-yl]methyl}-6-(trifluoromethyl)pyridin-2-yl]oxy}cyclohexyl)-3-[4-(7H-pyrrolo[2,3-d]pyrimidin-4-yl)-1H-pyrazol-1-yl]azetidin-3-yl}acetonitrile]: the 50% inhibitory concentration (IC50) in assay [1] was under 0.01 µM. Further, the JAK2/JAK1 in assay [2] is reported as over 10.
For `N#CCC(C1CCN(c2cccc(Cl)n2)C1)n1cc(-c2ncnc3[nH]ccc23)cn1` (stereo not shown) [bis(trifluoroacetate)], in assay [1], the IC50 was under 0.01 µM. In addition, the JAK2/JAK1 in assay [2] was over 10.
As for `CCOc1c(C(C)Nc2ncnc3scnc23)cc(Cl)c(F)c1C1CNC(=O)C1` (stereo not shown) [Example 1, 4-{3-Chloro-6-ethoxy-2-fluoro-5-[1-([1,3]thiazolo[5,4-d]pyrimidin-7-ylamino)ethyl]phenyl}pyrrolidin-2-one trifluoroacetate], in assay [3], the IC50 was at most 0.1 µM. For the same molecule, the JAK2/JAK1 in assay [2] is over 10.
Regarding `CCOc1c([C@@H](C)Nc2ncnc3cccnc23)cc(Cl)c(F)c1[C@@H]1CNC(=O)C1` (single isomer, unassigned) [Example 2D, 4-{3-chloro-6-ethoxy-2-fluoro-5-[1-(pyrido[3,2-d]pyrimidin-4-ylamino)ethyl]phenyl}pyrrolidin-2-one], in assay [3], the IC50 lay in the range of 0.1 to 0.4 µM.
Take `N#CC[C@]1(n2cc(-c3ncnc4[nH]ccc34)cn2)C[C@H](N2CCC(Oc3cc(CN4CC(O)C4)cc(C(F)(F)F)n3)CC2)C1` [Example 11]: the 50% inhibitory concentration (IC50) in assay [1] is under 0.01 µM. In addition, the JAK2/JAK1 in assay [2] is on record as over 10.
On to `N#CC[C@]1(n2cc(-c3ncnc4[nH]ccc34)cn2)C[C@H](N2CCC(Oc3cc(CCO)cc(C(F)(F)F)n3)CC2)C1` [Example 26], for which, in assay [1], the IC50 was under 0.01 µM. The JAK2/JAK1 in assay [2] is reported as over 10.
Regarding `CC(C)(O)c1cc(O[C@H]2CC[C@@H](N3CC(CC#N)(n4cc(-c5ncnc6[nH]ccc56)cn4)C3)CC2)nc(C(F)(F)F)c1` [Example 20, {1-(cis-4-{[4-(1-hydroxy-1-methylethyl)-6-(trifluoromethyl)pyridin-2-yl]oxy}cyclohexyl)-3-[4-(7H-pyrrolo[2,3-d]pyrimidin-4-yl)-1H-pyrazol-1-yl]azetidin-3-yl}acetonitrile], in assay [1], the IC50 is under 0.01 µM. Also, in assay [2], the JAK2/JAK1 was over 10.

For orientation: IC50 means the concentration that inhibits the measured activity by half. A low value points to greater potency in that assay.
